Source: ChEMBL document CHEMBL1201862, “PubChem BioAssay data set” (2004)
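Results reflect a 48-hour exposure of cells in 96-well plates to compound at five concentrations. Abbreviation: GI50, concentration required for 50% inhibition of growth.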 Calls of active or inactive are those of the source. Rule as the data show it: active = GI50 up to about 1.1 µM and inactive = higher.

Tests used:
Experiment in all cases: NCI anticancer screen, dose series, 48 h
786-0 = test system: 786-0
COLO 205 = test system: COLO 205
DU-145 = test system: DU-145
HCC 2998 = test system: HCC 2998
HCT-116 = test system: HCT-116
HL-60 = test system: HL-60
Hs-578T = test system: Hs-578T
M14 = test system: M14
MCF7 = test system: MCF7
MOLT-4 = test system: MOLT-4
NCI-H226 = test system: NCI-H226
NCI-H522 = test system: NCI-H522
OVCAR-5 = test system: OVCAR-5
RPMI-8226 = test system: RPMI-8226
SK-MEL-28 = test system: SK-MEL-28
SK-OV-3 = test system: SK-OV-3
SNB-75 = test system: SNB-75
TK-10 = test system: TK-10
UACC-257 = test system: UACC-257
UO-31 = test system: UO-31

For `c1ccc2c(c1)c1c3c(c4c(n32)=NCCN4)CCC1`, the GI50 (786-0) was 28.1 µM (inactive), the GI50 (COLO 205) was 28.1 µM (inactive) and the GI50 (DU-145) was 55.3 µM (inactive). The GI50 (HCC 2998) was 33.6 µM (inactive), the GI50 (HCT-116) was 30.5 µM (inactive) and the GI50 (HL-60) was 44.4 µM (inactive). The GI50 (Hs-578T) was 26.5 µM (inactive), the GI50 (M14) was 44.3 µM (inactive) and the GI50 (MCF7) was 24.8 µM (inactive). The GI50 (MOLT-4) was 21.3 µM (inactive), the GI50 (NCI-H226) was 19.2 µM (inactive) and the GI50 (NCI-H522) was 20.7 µM (inactive). The GI50 (OVCAR-5) was 36.3 µM (inactive), the GI50 (RPMI-8226) was 24.3 µM (inactive) and the GI50 (SK-MEL-28) was 55.3 µM (inactive). For the same compound, the GI50 (SK-OV-3) was 37.1 µM (inactive), the GI50 (SNB-75) was 21.7 µM (inactive) and the GI50 (TK-10) was 59.7 µM (inactive). The GI50 (UACC-257) was 38.1 µM (inactive) and the GI50 (UO-31) was 45.2 µM (inactive).
In the case of `C[C@H](C1CC(C)(O)C(C)(O)C(O)O1)[C@H]1CC[C@H]2[C@@H]3[C@@H]4O[C@@H]4[C@@]4(O)CC=CC(=O)[C@]4(C)[C@H]3CC[C@]12C` (stereo not given in full), the GI50 (786-0) is reported as 15.5 µM (inactive), the GI50 (COLO 205) is reported as > 50 µM (inactive) and the GI50 (DU-145) is reported as > 50 µM (inactive). The GI50 (HCC 2998) was > 50 µM (inactive), the GI50 (HCT-116) was 36.9 µM (inactive) and the GI50 (HL-60) was > 50 µM (inactive). For the same compound, the GI50 (Hs-578T) was 0.039 µM (active), the GI50 (M14) was > 50 µM (inactive) and the GI50 (MCF7) was > 50 µM (inactive). The GI50 (MOLT-4) was > 50 µM (inactive), the GI50 (NCI-H226) was 22.9 µM (inactive) and the GI50 (NCI-H522) was 18.2 µM (inactive). For the same compound, the GI50 (OVCAR-5) was > 50 µM (inactive), the GI50 (RPMI-8226) was > 50 µM (inactive) and the GI50 (SK-MEL-28) was > 50 µM (inactive). For the same compound, the GI50 (SK-OV-3) was 14.8 µM (inactive), the GI50 (SNB-75) was 20.9 µM (inactive) and the GI50 (TK-10) was > 50 µM (inactive). For the same compound, the GI50 (UACC-257) was > 50 µM (inactive) and the GI50 (UO-31) was 7.55 µM (inactive).
With `O=C1COc2cc(N3CCN(c4cccc(C(F)(F)F)c4)CC3)ccc2N1` the GI50 (786-0) was > 100 µM (inactive), the GI50 (COLO 205) was > 100 µM (inactive) and the GI50 (DU-145) was > 100 µM (inactive). The GI50 (HCC 2998) was > 100 µM (inactive), the GI50 (HCT-116) was > 100 µM (inactive) and the GI50 (HL-60) was > 100 µM (inactive). The GI50 (Hs-578T) was > 100 µM (inactive), the GI50 (M14) was > 100 µM (inactive) and the GI50 (MCF7) was > 100 µM (inactive). For the same compound, the GI50 (MOLT-4) was > 100 µM (inactive), the GI50 (NCI-H226) was > 100 µM (inactive) and the GI50 (NCI-H522) was 86.3 µM (inactive). For the same compound, the GI50 (OVCAR-5) was > 100 µM (inactive), the GI50 (RPMI-8226) was > 100 µM (inactive) and the GI50 (SK-MEL-28) was > 100 µM (inactive). For the same compound, the GI50 (SK-OV-3) was > 100 µM (inactive), the GI50 (SNB-75) was > 100 µM (inactive) and the GI50 (TK-10) was > 100 µM (inactive). For the same compound, the GI50 (UACC-257) was > 100 µM (inactive) and the GI50 (UO-31) was > 100 µM (inactive).
`COc1ccc(C[C@H]2NC[C@H](OC(C)=O)[C@H]2OC(C)=O)cc1` was tested, and the GI50 (786-0) was 0.0776 µM (active), the GI50 (COLO 205) was 0.147 µM (active) and the GI50 (DU-145) was 0.0726 µM (active). The GI50 (HCC 2998) was 0.115 µM (active), the GI50 (HCT-116) was 0.105 µM (active) and the GI50 (HL-60) was 0.1 µM (active). For the same compound, the GI50 (Hs-578T) was 0.135 µM (active), the GI50 (M14) was 0.0951 µM (active) and the GI50 (MCF7) was 0.14 µM (active). The GI50 (MOLT-4) was 0.205 µM (active), the GI50 (NCI-H226) was 0.172 µM (active) and the GI50 (NCI-H522) was 0.0525 µM (active). The GI50 (OVCAR-5) was 0.122 µM (active), the GI50 (RPMI-8226) was 0.275 µM (active) and the GI50 (SK-MEL-28) was 0.143 µM (active). For the same compound, the GI50 (SK-OV-3) was 0.138 µM (active), the GI50 (SNB-75) was 0.0721 µM (active) and the GI50 (TK-10) was 0.31 µM (active). The GI50 (UACC-257) was 0.21 µM (active) and the GI50 (UO-31) was 0.0583 µM (active).
`COc1ccc(NC2C(=O)C3(C)CCC2C3(C)C)cc1` (stereo not given) was tested, and the GI50 (786-0) was > 100 µM (inactive), the GI50 (COLO 205) was > 100 µM (inactive) and the GI50 (DU-145) was > 100 µM (inactive). The GI50 (HCC 2998) was > 100 µM (inactive), the GI50 (HCT-116) was > 100 µM (inactive) and the GI50 (HL-60) was 29.3 µM (inactive). For the same compound, the GI50 (Hs-578T) was > 100 µM (inactive), the GI50 (M14) was > 100 µM (inactive) and the GI50 (MCF7) was > 100 µM (inactive). The GI50 (MOLT-4) was 67.8 µM (inactive), the GI50 (NCI-H226) was 67.8 µM (inactive) and the GI50 (NCI-H522) was 79.4 µM (inactive). For the same compound, the GI50 (OVCAR-5) was > 100 µM (inactive), the GI50 (RPMI-8226) was 52.2 µM (inactive) and the GI50 (SK-MEL-28) was > 100 µM (inactive). The GI50 (SK-OV-3) was > 100 µM (inactive), the GI50 (SNB-75) was > 100 µM (inactive) and the GI50 (TK-10) was > 100 µM (inactive). For the same compound, the GI50 (UACC-257) was 49 µM (inactive) and the GI50 (UO-31) was 54.7 µM (inactive).
In the case of `CCCOc1ccc(/C=C/C2=[N+](CCO)CCO2)cc1`, the GI50 (786-0) is reported as > 100 µM (inactive), the GI50 (COLO 205) is reported as > 100 µM (inactive) and the GI50 (DU-145) is reported as > 100 µM (inactive). The GI50 (HCC 2998) was > 100 µM (inactive), the GI50 (HCT-116) was > 100 µM (inactive) and the GI50 (HL-60) was > 100 µM (inactive). The GI50 (Hs-578T) was > 100 µM (inactive), the GI50 (M14) was > 100 µM (inactive) and the GI50 (MCF7) was > 100 µM (inactive). For the same compound, the GI50 (MOLT-4) was > 100 µM (inactive), the GI50 (NCI-H226) was > 100 µM (inactive) and the GI50 (NCI-H522) was > 100 µM (inactive). For the same compound, the GI50 (OVCAR-5) was > 100 µM (inactive), the GI50 (RPMI-8226) was > 100 µM (inactive) and the GI50 (SK-MEL-28) was > 100 µM (inactive). For the same compound, the GI50 (SK-OV-3) was > 100 µM (inactive), the GI50 (SNB-75) was > 100 µM (inactive) and the GI50 (TK-10) was > 100 µM (inactive). For the same compound, the GI50 (UACC-257) was > 100 µM (inactive) and the GI50 (UO-31) was > 100 µM (inactive).
